In article PMC12562379, “Facile Synthesis of N-vinylindoles via Knoevenagel Condensation: Molecular Features and Biological Activities” (International Journal of Molecular Sciences, 2025):
Values after ≈ are worked out from the molar mass of the structure shown.

How the values were obtained:
E. coli ATCC 8739 = assay: Microbroth dilution assay; assay type: cell-based; conditions: Escherichia coli, ATCC8739, E. coli ATCC 8739
Experimental: The minimum inhibitory concentration (MIC) and minimum bactericidal/fungicidal concentration (MBC/MFC) of the tested compounds were determined by the microbroth dilution technique using 96-well plates based on the methodology described in the EUCAST (European Committee on Antimicrobial Susceptibility Testing) standards. Reference and clinical strains of Gram-positive (Staphylococcus aureus ATCC 6538, Staphylococuccus aureus MRSA 6347) and Gram-negative (Escherichia coli ATCC 8739) bacteria, and yeast (Candida albicans ATCC 10231, Candida glabrata ATCC 2001) were used for the assay. The studies were carried out in the Mueller–Hinton (MH) broth for bacteria and RPMI 1640 broth + MOPS (Sigma-Aldrich, Poland) buffer in the case of yeast. The dry test samples were dissolved in DMSO (dimethyl sulfoxide), resulting in a final concentration of 15 mg/mL, and then diluted in a geometric progression. Ampicillin (Sigma-Aldrich, Poland) acted as a control sample (512 to 4 µg/mL) for bacteria and ketoconazole (128 to 1 µg/mL) (Sigma-Aldrich, Poland) acted as a control sample for yeast. The cultures of microorganisms were prepared by transferring cells from the stock cultures to tubes with the appropriate broth and incubated with agitation in an aerobic atmosphere for 18 ± 2 h at 35 ± 1 °C; next, they were diluted to achieve an optical density corresponding to 5 × 105 (bacteria) or 2 × 105 (yeast) colony-forming units per mL (cfu/mL). An appropriate media (96 µL), along with the tested compounds with a final concentration range of 300–3.1 µg/mL (4 µL) and next microbial suspension (100 µL) were added to each well. Plates with samples were incubated in adequate conditions described above and microbial growth was assessed. […] (>90%; ketoconazole) but 50% (for other compounds) inhibits visible growth of yeasts. Next, as a control of microbial viability, 100 µL of the samples from each well without growth was inoculated on the MH or RPMI agar plates and incubated for 18 ± 2 h at 35 ± 1 °C and finally, the CFU was counted. The MBC/MFC was determined as the minimum concentration of compounds required to kill 99.9% the organisms.

[1] = tested on: S. aureus ATCC 6535, S. aureus MRSA 12673 and other tested bacterial and yeast strains; assay: Microbroth dilution assay, ranges stated over several strains; assay type: cell-based; conditions: range over S. aureus ATCC 6535 and MRSA 12673
SKOV-3 cells = assay: Cell cycle assay (Muse Cell Analyzer); assay type: cell-based, human; conditions: SKOV-3, 48 h
Experimental: The SKOV-3 cells (5 × 10^5 cells/well) were seeded and incubated with compound 2i at concentrations of 2, 5, 10, 15, 30, and 60 µg/mL for 48 h. After treatment, Muse Cell Cycle Assay Kit and Muse Cell Analyzer (Merck Millipore, Burlington, MA, USA) were used to analyze the stained cells, according to the manufacturer’s instruction. The results are shown as percentage of the cells in each phase of cell cycle: subG0, G0/G1, S, and G2/M. The experiment was repeated in two independent repeats (in three repetitions).

## C(=C(\C1=NCCN1)n1ccc2ccccc21)/c1ccc2ccccc2c1 [Compound 2i, (Z)-1-[1-(4,5-dihydro-1H-imidazol-2-yl)-2-(naphthalen-2-yl)vinyl]-1H-indole]
E. coli ATCC 8739
  MBC: > 240 µg/mL
E. coli ATCC 8739; read-out: MIC
  MIC: > 240 µg/mL
[1]
  MBC (range over strains): 30 µg/mL (≈ 88.9 µM)
  MIC (range over strains): 15 to 30 µg/mL
SKOV-3 cells; 2 µg/mL
  cells in subG0 phase: 28.10 ± 4.49%
SKOV-3 cells; 5 µg/mL
  cells in subG0 phase: 49.00 ± 0.85%
SKOV-3 cells; 10 µg/mL
  cells in subG0 phase: 82.73 ± 1.33%
SKOV-3 cells; 15 µg/mL
  cells in subG0 phase: 91.67 ± 0.57%
SKOV-3 cells; 30 µg/mL
  cells in subG0 phase: 95.30 ± 1.67%
SKOV-3 cells; 60 µg/mL
  cells in subG0 phase: 99.83 ± 0.15%
SKOV-3 cells; 2–60 µg/mL, all concentrations
  cell cycle arrest: strongly induced cell cycle arrest in subG0 phase
